Results as given in patent publication US8735375B2, “Therapeutic compositions” (Leo Laboratories Limited, priority 2005, dated 2014).

Assay: Stability of I3A at various pH's (buffers)
Assay type: physicochemical
Conditions: room temperature
Description: The stability of I3A was investigated at pH 4.5 in two buffers i.e. monopotassium phosphate/disodium phosphate and acetic acid/ammonium acetate for 24 h at room temperature.

SMILES: C/C=C(/C)C(=O)O[C@H]1C(C)=C[C@]23C(=O)[C@H](C=C(CO)[C@@H](O)[C@]12O)[C@H]1[C@@H](C[C@H]3C)C1(C)C [Formulation I3A, ingenol-3-angelate]
- stability (predominance of isoform 'b') (pH 4.5, monopotassium phosphate/disodium phosphate and acetic acid/ammonium acetate buffers, 24 h): stable
- stability (pH 5.5, 6.5 and 7.0, 14 days): decrease with an increase in pH
